From US20230295162A1 (EÖTVÖS LORÁND TUDOMÁNYEGYETEM, priority 2020, published 2023)

Key:
[1] = test system: PANC-1 (human pancreatic carcinoma) cells; assay: Impedance-based viability assay (xCELLigence SP), long treatment; assay type: cell-based; conditions: 72 h, read-out: cytotoxicity expressed in IC50, PANC-1
Excerpt: (Gibco®/Invitrogen Corporation, New York, NY, USA).
Data obtained from each experiment represent mathematical averages.

[2] = test system: EBC-1 lung cancer cell line; assay: High-throughput screening, CellTiter-Glo cell viability assay at 100 nM; assay type: cell-based, human; conditions: Homo sapiens, EBC-1, HTS, compounds at 100 nM, 72 h, read-out: cytotoxicity expressed in IC50, EBC-1 (results of High throughput screening)
[3] = test system: H2228 lung cancer cell line; assay: as above; assay type: cell-based, human; conditions: Homo sapiens, NCI-H2228, HTS, compounds at 100 nM, 72 h, read-out: cytotoxicity expressed in IC50, H2228 (results of High throughput screening)
[4] = test system: A549 lung carcinoma cell line; assay: CellTiter-Glo IC50 (Example 19); assay type: cell-based; conditions: Homo sapiens, 72 h
Experimental: (§1) Some representative imipridones and ONC212 as reference were further tested on the following human malignant cell lines: PC3 and LNCap (prostate carcinoma); BxPC3, MiaPaCa2 and Panc1 (pancreatic cancer); A549, HCC827, H1993 and H520 (lung carcinoma); MDA-MB-453 and MDA-MB-231 (breast cancer) (see Table 2 and FIGS. 1-11).
(§2) Cell lines were maintained according to the instructions provided by ATCC (https://www.lgcstandards-atcc.org/) in a 5% CO2 humidified incubator maintained at 37° C. temperature. Effects of compounds on cell viability were measured via CellTiter-Glo® luminescent cell viability assay (Promega, Madison, WI, USA) Cells were plated at 1000 cells/well onto a flat-bottomed, white 96 well plate (BRANDplates, cat. no.: 781965). […] After the treatment, medium was removed and CellTiter-Glo® reagent was added. The luminescence signal was recorded using a microplate reader (BioTek Synergy 2 Multi-Mode Reader, BioTek, Winooski, VT, USA).
(§3) Cell viability data (% of untreated control cells) was evaluated with Microsoft Excel. Dose-response curves (using a non-linear regression model, log (inhibitor) vs response, variable slope) were generated and IC50 values were determined using Graph Pad Prism 5.02 software (GraphPad Software, San Diego, CA, USA).

[5] = test system: BxPC3 pancreatic cancer cell line; assay: CellTiter-Glo IC50 (Example 19); assay type: cell-based; conditions: Homo sapiens, BXPC-3, 72 h
Experimental: as §1, §2, §3

[6] = test system: H1993 lung carcinoma cell line; assay: CellTiter-Glo IC50 (Example 19); assay type: cell-based; conditions: Homo sapiens, NCI-H1993, 72 h
Experimental: as §1, §2, §3

[7] = test system: H520 lung carcinoma cell line; assay: CellTiter-Glo IC50 (Example 19); assay type: cell-based; conditions: Homo sapiens, NCI-H520, 72 h
Experimental: as §1, §2, §3

[8] = test system: HCC827 lung carcinoma cell line; assay: CellTiter-Glo IC50 (Example 19); assay type: cell-based; conditions: Homo sapiens, 72 h
Experimental: as §1, §2, §3

[9] = test system: LNCap human prostate cancer cell line; assay: CellTiter-Glo IC50 (Example 19); assay type: cell-based; conditions: 72 h
Experimental: as §1, §2, §3

[10] = test system: MiaPaCa2 pancreatic cancer cell line; assay: CellTiter-Glo IC50 (Example 19); assay type: cell-based; conditions: Homo sapiens, MIA PaCa-2, 72 h
Experimental: as §1, §2, §3

[11] = test system: PC3 human prostate cancer cell line; assay: CellTiter-Glo IC50 (Example 19); assay type: cell-based; conditions: 72 h
Experimental: as §1, §2, §3

[12] = test system: Panc1 pancreatic cancer cell line; assay: CellTiter-Glo IC50 (Example 19); assay type: cell-based; conditions: Homo sapiens, PANC-1, 72 h
Experimental: as §1, §2, §3

[13] = test system: MDA-MB-231 breast cancer cell line; assay: CellTiter-Glo IC50 (Table 3); assay type: cell-based; conditions: Homo sapiens
Experimental: as §1, §2, §3

[14] = test system: MDA-MB-453 breast cancer cell line; assay: CellTiter-Glo IC50 (Table 3); assay type: cell-based; conditions: Homo sapiens
Experimental: as §1, §2, §3

Detroit 562 cell line = assay: Additional in vitro IC50 tests (Table 3); assay type: cell-based; conditions: Homo sapiens
Experimental: as §2, §3

EBC-1 cell line = assay: Additional in vitro IC50 tests (Table 3); assay type: cell-based; conditions: Homo sapiens
Experimental: as §2, §3

Fadu cell line = assay: Additional in vitro IC50 tests (Table 3); assay type: cell-based; conditions: Homo sapiens
Experimental: as §2, §3

H2228 cell line = assay: Additional in vitro IC50 tests (Table 3); assay type: cell-based; conditions: Homo sapiens, NCI-H2228
Experimental: as §2, §3

SCC-25 cell line = assay: Additional in vitro IC50 tests (Table 3); assay type: cell-based; conditions: Homo sapiens
Experimental: as §2, §3

[15] = test system: representative cell lines; assay: Cytotoxicity on representative cell lines (summary statement); assay type: cell-based; conditions: Homo sapiens; summary range, ca.

IC50 [4]: 4 nM
IC50 [5]: 3 nM
IC50 [6]: 3 nM
IC50 [7]: 3 nM
IC50 [8]: 4 nM
IC50 [9]: 2 nM
IC50 [10]: 4 nM
IC50 [11]: 2 nM
IC50 [12]: 4 nM
IC50 [13]: < 1 nM
IC50 [14]: < 1 nM
IC50 (Detroit 562 cell line): 3 nM
IC50 (EBC-1 cell line): 4 nM
IC50 (Fadu cell line): 5 nM
IC50 (H2228 cell line): 6 nM
IC50 (SCC-25 cell line): 7 nM
melting point: 173.5 °C
Compound: O=C1C2=C(CCN(Cc3cc(F)cc(F)c3)C2)N2CCN=C2N1Cc1ccc(Br)cc1 [I/39, 4-(4-Bromobenzyl)-7-(3,5-difluorobenzyl)-2,4,6,7,8,9-hexahydroimidazo[1,2-a]pyrido[3,4-e]pyrimidin-5(1H)-one]
IC50 [1]: 3 nM
IC50 [2]: < 100 nM
IC50 [3]: < 100 nM
IC50 [15]: 3 to 8 nM
